Source: patent US20240307416A1, “FILM-FORMING COMPOSITIONS COMPRISING SALICYLIC ACID AND METHODS OF USE” (3M INNOVATIVE PROPERTIES COMPANY, priority 2021, published 2024)

Experiment: Dissolution of salicylic acid in film-forming gel components
Type: physicochemical

O=C(O)c1ccccc1O [salicylic acid]
Solubility of salicylic acid in the silicate tackifying resin and/or the volatile solvent: does not appear to be readily soluble
Dissolution of salicylic acid in the formulation of U.S. Pat. No. 10,603,405 (SPOx added at the end of the manufacture): did not appear dissolve and remained a solid particulate
